Measurements published in ChEMBL document CHEMBL1201862, “PubChem BioAssay data set” (2004).
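Grown in 96-well plates, cells were treated for 48 hours with each compound at five concentrations. Insufficient inhibition: endpoint recorded as highest concentration tested. GI50 is the concentration that inhibits growth by half.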 Active and inactive are the calls of the source. No stated cut-off is given here; in the data, active = GI50 up to about 1.1 µM and inactive = higher.

Assays:
Experiment in all cases: NCI anticancer screen, dose series, 48 h
786-0 = tested on: 786-0
A498 = tested on: A498
A549 = tested on: A549
ACHN = tested on: ACHN
CAKI-1 = tested on: CAKI-1
COLO 205 = tested on: COLO 205
DU-145 = tested on: DU-145
HOP-62 = tested on: HOP-62
HOP-92 = tested on: HOP-92
KM12 = tested on: KM12
MDA-N = tested on: MDA-N
NCI-H23 = tested on: NCI-H23
OVCAR-4 = tested on: OVCAR-4
OVCAR-8 = tested on: OVCAR-8
RXF 393 = tested on: RXF 393
SNB-19 = tested on: SNB-19
T47D = tested on: T47D
U-251 = tested on: U-251
UACC-257 = tested on: UACC-257
UO-31 = tested on: UO-31

Measured: GI50

O=C(O)CC1(C(=O)O)CCCCC1
inactive: 786-0 > 100 µM | A498 > 100 µM | A549 > 100 µM | ACHN > 100 µM | CAKI-1 > 100 µM | COLO 205 > 100 µM | DU-145 > 100 µM | HOP-62 > 100 µM | HOP-92 > 100 µM | KM12 > 100 µM | MDA-N > 100 µM | NCI-H23 > 100 µM | OVCAR-4 > 100 µM | OVCAR-8 > 100 µM | RXF 393 > 100 µM | SNB-19 > 100 µM | T47D > 100 µM | U-251 > 100 µM | UACC-257 > 100 µM | UO-31 > 100 µM

O=C1CC(=O)NC(NNS(=O)(=O)c2ccc(Cl)cc2)=N1
inactive: 786-0 > 100 µM | A498 > 100 µM | A549 > 100 µM | ACHN > 100 µM | CAKI-1 > 100 µM | COLO 205 > 100 µM | DU-145 > 100 µM | HOP-62 > 100 µM | HOP-92 > 100 µM | KM12 > 100 µM | MDA-N > 100 µM | NCI-H23 > 100 µM | OVCAR-4 > 100 µM | OVCAR-8 > 100 µM | RXF 393 > 100 µM | SNB-19 > 100 µM | T47D > 100 µM | U-251 > 100 µM | UACC-257 > 100 µM | UO-31 > 100 µM

COc1ccc(OC)c2c1C(=O)C(O)=C(Cl)C2=O
inactive: 786-0 > 100 µM | A498 > 100 µM | A549 > 100 µM | ACHN > 100 µM | CAKI-1 > 100 µM | COLO 205 > 100 µM | DU-145 > 100 µM | HOP-62 > 100 µM | HOP-92 > 100 µM | KM12 > 100 µM | MDA-N > 100 µM | NCI-H23 > 100 µM | OVCAR-4 > 100 µM | OVCAR-8 > 100 µM | RXF 393 > 100 µM | SNB-19 > 100 µM | T47D > 100 µM | U-251 > 100 µM | UACC-257 > 100 µM | UO-31 > 100 µM

CC(=O)C1(C)CC(C#N)(C#N)C(C#N)=C1N (stereo not given)
inactive: 786-0 > 100 µM | A498 > 100 µM | A549 25.1 µM | ACHN > 100 µM | CAKI-1 66.8 µM | COLO 205 > 100 µM | DU-145 > 100 µM | HOP-62 > 100 µM | HOP-92 21 µM | KM12 > 100 µM | MDA-N > 100 µM | NCI-H23 > 100 µM | OVCAR-4 > 100 µM | OVCAR-8 > 100 µM | RXF 393 > 100 µM | SNB-19 > 100 µM | T47D > 100 µM | U-251 > 100 µM | UACC-257 > 100 µM | UO-31 > 100 µM

N#Cc1c(O)c(/C=N/c2ccc(Cl)cc2)c(=O)n2c1[nH]c1ccccc12
inactive: 786-0 > 100 µM | A498 > 100 µM | A549 > 100 µM | ACHN > 100 µM | CAKI-1 > 100 µM | COLO 205 > 100 µM | DU-145 > 100 µM | HOP-62 > 100 µM | HOP-92 > 100 µM | KM12 > 100 µM | MDA-N > 100 µM | NCI-H23 > 100 µM | OVCAR-4 > 100 µM | OVCAR-8 > 100 µM | RXF 393 > 100 µM | SNB-19 > 100 µM | T47D > 100 µM | U-251 > 100 µM | UACC-257 > 100 µM | UO-31 > 100 µM

CCN1C(NCCO)=NS(=O)(=O)c2ccccc21
inactive: 786-0 > 100 µM | A498 > 100 µM | A549 > 100 µM | ACHN > 100 µM | CAKI-1 > 100 µM | COLO 205 > 100 µM | DU-145 > 100 µM | HOP-62 > 100 µM | HOP-92 > 100 µM | KM12 > 100 µM | MDA-N > 100 µM | NCI-H23 > 100 µM | OVCAR-4 > 100 µM | OVCAR-8 > 100 µM | RXF 393 > 100 µM | SNB-19 > 100 µM | T47D > 100 µM | U-251 > 100 µM | UACC-257 > 100 µM | UO-31 > 100 µM

N#C/C(N)=C(\C#N)NC(=O)C(=O)N/C(C#N)=C(\N)C#N
inactive: 786-0 > 100 µM | A498 > 100 µM | A549 > 100 µM | ACHN > 100 µM | CAKI-1 > 100 µM | COLO 205 > 100 µM | DU-145 > 100 µM | HOP-62 > 100 µM | HOP-92 > 100 µM | KM12 > 100 µM | MDA-N > 100 µM | NCI-H23 > 100 µM | OVCAR-4 > 100 µM | OVCAR-8 > 100 µM | RXF 393 9.38 µM | SNB-19 > 100 µM | T47D > 100 µM | U-251 > 100 µM | UACC-257 > 100 µM | UO-31 > 100 µM

Clc1ccccc1/C=C/c1ccnc2ccccc12
inactive: 786-0 15.8 µM | A498 18.8 µM | A549 16.2 µM | ACHN 16.5 µM | CAKI-1 16.9 µM | COLO 205 13.8 µM | DU-145 15.7 µM | HOP-62 16.9 µM | HOP-92 10.2 µM | KM12 17.4 µM | MDA-N 14.6 µM | NCI-H23 14.1 µM | OVCAR-4 16.1 µM | OVCAR-8 18.3 µM | RXF 393 16.5 µM | SNB-19 16.8 µM | T47D 13.6 µM | U-251 16.8 µM | UACC-257 15.1 µM | UO-31 17.3 µM

OC(CCN1CCN(CCOC(c2ccccc2)c2ccccc2)CC1)c1ccccc1 (stereo not given)
inactive: 786-0 18 µM | A498 2.4 µM | A549 44.6 µM | ACHN 27 µM | CAKI-1 32 µM | COLO 205 14.5 µM | DU-145 39.7 µM | HOP-62 20.5 µM | HOP-92 22.5 µM | KM12 20.9 µM | MDA-N 19.3 µM | NCI-H23 24.7 µM | OVCAR-4 30.1 µM | OVCAR-8 17.7 µM | RXF 393 19.9 µM | SNB-19 32.4 µM | T47D 17.2 µM | U-251 16.3 µM | UACC-257 17.9 µM | UO-31 24.7 µM

C=CCCCC1SC2=C(CC)CCCN2C1=O (stereo not given)
inactive: 786-0 > 100 µM | A498 90.4 µM | A549 41.6 µM | ACHN 89.1 µM | CAKI-1 > 100 µM | COLO 205 54 µM | DU-145 > 100 µM | HOP-62 > 100 µM | HOP-92 36.9 µM | KM12 86.7 µM | MDA-N 70.1 µM | NCI-H23 49.1 µM | OVCAR-4 65.6 µM | OVCAR-8 > 100 µM | RXF 393 40.5 µM | SNB-19 73.5 µM | T47D 32.5 µM | U-251 85.1 µM | UACC-257 27.6 µM | UO-31 67.5 µM

Oc1nc2cc(Cl)ccc2nc1/C(=N\Nc1ccccc1)C(O)c1ccc2c(c1)OCO2 (stereo not given)
inactive: 786-0 > 100 µM | A498 > 100 µM | A549 > 100 µM | ACHN > 100 µM | CAKI-1 > 100 µM | COLO 205 > 100 µM | DU-145 > 100 µM | HOP-62 > 100 µM | HOP-92 > 100 µM | KM12 > 100 µM | MDA-N > 100 µM | NCI-H23 > 100 µM | OVCAR-4 > 100 µM | OVCAR-8 > 100 µM | RXF 393 > 100 µM | SNB-19 > 100 µM | T47D 72.8 µM | U-251 > 100 µM | UACC-257 > 100 µM | UO-31 > 100 µM

O=C(NC(N1CCN(c2cc3c(cc2F)c(=O)c(C(=O)O)cn3C2CC2)CC1)(C(F)(F)F)C(F)(F)F)c1ccccc1
inactive: 786-0 45.2 µM | A498 30.4 µM | A549 39.7 µM | ACHN 35.8 µM | CAKI-1 22.9 µM | COLO 205 19.1 µM | DU-145 62.1 µM | HOP-62 38.5 µM | HOP-92 33.8 µM | KM12 29.2 µM | MDA-N 39.6 µM | NCI-H23 25.9 µM | OVCAR-4 35.2 µM | OVCAR-8 46 µM | RXF 393 46.1 µM | SNB-19 33.9 µM | T47D 35.6 µM | U-251 37.3 µM | UACC-257 26.8 µM | UO-31 30.5 µM

COC(=O)[C@H](Cc1ccccc1)NC(=O)N(CCC#N)CCCCN(CCC#N)C(=O)N[C@@H](Cc1ccccc1)C(=O)OC
inactive: 786-0 > 100 µM | A498 > 100 µM | A549 > 100 µM | ACHN > 100 µM | CAKI-1 > 100 µM | COLO 205 > 100 µM | DU-145 > 100 µM | HOP-62 > 100 µM | HOP-92 > 100 µM | KM12 > 100 µM | MDA-N > 100 µM | NCI-H23 > 100 µM | OVCAR-4 > 100 µM | OVCAR-8 > 100 µM | RXF 393 > 58.1 µM | SNB-19 > 100 µM | T47D > 100 µM | U-251 > 100 µM | UACC-257 > 100 µM | UO-31 > 100 µM

c1cc2c(c(NC3=NCCO3)c1)CCC2
inactive: 786-0 > 100 µM | A498 > 100 µM | A549 > 100 µM | ACHN > 100 µM | CAKI-1 > 100 µM | COLO 205 > 100 µM | DU-145 > 100 µM | HOP-62 > 100 µM | HOP-92 94.4 µM | KM12 > 100 µM | MDA-N 84.5 µM | NCI-H23 > 100 µM | OVCAR-4 > 100 µM | OVCAR-8 > 100 µM | RXF 393 > 100 µM | SNB-19 > 100 µM | T47D > 100 µM | U-251 > 100 µM | UACC-257 > 100 µM | UO-31 > 100 µM
